This note sets out measurements from ChEMBL document CHEMBL1201862, “PubChem BioAssay data set” (2004).

SMILES strings stand for the structures.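 Each compound was tested at five concentrations against cells in 96-well plates for 48 hours. The concentration for 50% growth inhibition is given as GI50.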 The source made the active and inactive calls. Rule as the data show it: active = GI50 up to about 1.1 µM and inactive = higher. Bounds are passed on as bounds.

Some test systems named below: HOP-62; HOP-92; DLD-1; EKVX; KM12; SNB-19; Malme-3M; OVCAR-4; COLO 205; SK-OV-3; NCI-H522; OVCAR-5; 786-0; NCI-H226; IGROV-1; SF-539; RPMI-8226.
Common to all, as to experiment: NCI-60 cell line screen, 48 h

As for `O=C1CCCc2ccc([N+](=O)[O-])c(O)c21`, the GI50 in the experiment on HOP-62 is > 100 µM (inactive); with HOP-92, 68.1 µM (inactive); in the experiment on DLD-1, > 100 µM (inactive); in the experiment with EKVX it was > 100 µM (inactive); with KM12 it was > 100 µM (inactive); in the experiment on SNB-19, 82.6 µM (inactive). Further, the GI50 in the experiment on Malme-3M is 34.4 µM (inactive); in the experiment with OVCAR-4, > 100 µM (inactive); in the experiment on COLO 205, > 100 µM (inactive); in the experiment on SK-OV-3, > 100 µM (inactive); in the experiment with NCI-H522 it was 66.8 µM (inactive); in the experiment on OVCAR-5 it was 59.8 µM (inactive). Also, the GI50 in the experiment with 786-0 was 89.9 µM (inactive); in the experiment on NCI-H226, 40.8 µM (inactive); in the experiment on IGROV-1, 82.6 µM (inactive); with SF-539, > 100 µM (inactive).

With `Cc1cc(NS(=O)(=O)c2ccc(Nc3c4ccccc4nc4c(C(=O)Nc5ccc(S(N)(=O)=O)cc5)cccc34)cc2)no1`, the GI50 in the experiment on HOP-62 was 35.4 µM (inactive); in the experiment on HOP-92 it was 33 µM (inactive); in the experiment with DLD-1, > 100 µM (inactive); in the experiment with EKVX, > 100 µM (inactive); in the experiment on KM12, 20.6 µM (inactive); in the experiment on SNB-19, 32.7 µM (inactive). In addition, the GI50 in the experiment with Malme-3M is 17.9 µM (inactive); in the experiment with OVCAR-4 it was 23.4 µM (inactive); in the experiment with RPMI-8226, > 100 µM (inactive); in the experiment with COLO 205 it was 34.8 µM (inactive); with SK-OV-3, > 100 µM (inactive); in the experiment on NCI-H522, 24.2 µM (inactive). Also, the GI50 in the experiment with OVCAR-5 was > 100 µM (inactive); in the experiment with 786-0, > 100 µM (inactive); in the experiment on IGROV-1, 70.1 µM (inactive); in the experiment with SF-539 it was 21.3 µM (inactive).

Regarding `NNC(=O)/C(=C/c1ccc(Cl)c(Cl)c1)NC(=O)c1ccccc1`, the GI50 in the experiment with HOP-62 was > 100 µM (inactive); in the experiment on HOP-92, 40.5 µM (inactive); in the experiment with DLD-1, > 100 µM (inactive); in the experiment on EKVX, > 100 µM (inactive); in the experiment with KM12, > 100 µM (inactive); with SNB-19 it was > 100 µM (inactive). Besides, the GI50 with Malme-3M is > 100 µM (inactive); in the experiment with OVCAR-4, 76 µM (inactive); in the experiment with RPMI-8226, 38.5 µM (inactive); in the experiment with COLO 205, > 100 µM (inactive); with OVCAR-5, > 100 µM (inactive); in the experiment with 786-0 it was > 100 µM (inactive). Besides, the GI50 in the experiment with NCI-H226 and in the experiment on IGROV-1 was > 100 µM (inactive) in each case.

In the case of `C[N+](C)(C)CC1CCCC/C1=N\OC(=O)c1ccccc1` (stereo not drawn), the GI50 in the experiment on HOP-62, with HOP-92, in the experiment on DLD-1, with EKVX, with KM12 and in the experiment with SNB-19 was > 100 µM (inactive) throughout. For the same molecule, the GI50 in the experiment on Malme-3M, in the experiment on OVCAR-4, in the experiment with RPMI-8226, in the experiment with COLO 205, with SK-OV-3 and with NCI-H522 was > 100 µM (inactive) each time. The GI50 in the experiment with OVCAR-5, in the experiment on 786-0, with IGROV-1 and in the experiment with SF-539 was > 100 µM (inactive) each time.

For `COC(=O)/C1=C/C2CC(/C=C(/c3ccccc3)C(=O)O1)C2`, the GI50 is 44.2 µM (inactive) in the experiment with HOP-62; 22.8 µM (inactive) in the experiment on DLD-1; 40.3 µM (inactive) in the experiment on EKVX; 23.8 µM (inactive) in the experiment with KM12; 35.4 µM (inactive) with SNB-19; 12.1 µM (inactive) in the experiment with Malme-3M. The GI50 was 18.3 µM (inactive) in the experiment on RPMI-8226; 19.1 µM (inactive) with COLO 205; 36.7 µM (inactive) in the experiment on SK-OV-3; 16.7 µM (inactive) with NCI-H522; 37.5 µM (inactive) in the experiment on 786-0; 20.4 µM (inactive) in the experiment with NCI-H226. Also, the GI50 in the experiment with IGROV-1 was 42.4 µM (inactive); in the experiment on SF-539, 33.3 µM (inactive).

Consider `COc1nc(=O)cc(N)n1C1OC(CO)C(O)C1O` (stereo not drawn), for which the GI50 in the experiment on HOP-62, with DLD-1, in the experiment with EKVX, in the experiment on KM12, in the experiment with SNB-19 and with Malme-3M was > 100 µM (inactive) each time. For the same molecule, the GI50 with RPMI-8226, in the experiment on COLO 205, in the experiment with SK-OV-3, with NCI-H522, in the experiment with OVCAR-5 and in the experiment on 786-0 was > 100 µM (inactive) in each case. In addition, the GI50 in the experiment on NCI-H226, in the experiment on IGROV-1 and with SF-539 was > 100 µM (inactive) in each case.

On to `Cc1cc(NS(=O)(=O)c2ccc(NC(=O)c3cccc4c(N)c5ccccc5nc34)cc2)no1`, for which the GI50 was 29.6 µM (inactive) in the experiment on HOP-62; 30.6 µM (inactive) in the experiment with DLD-1; 90.8 µM (inactive) in the experiment with EKVX; 18.9 µM (inactive) in the experiment on KM12; 17.4 µM (inactive) in the experiment with SNB-19; 30.9 µM (inactive) in the experiment with Malme-3M. For the same molecule, the GI50 in the experiment with OVCAR-4 is 27.3 µM (inactive); in the experiment on RPMI-8226, 24 µM (inactive); in the experiment on COLO 205 it was 22.6 µM (inactive); in the experiment with SK-OV-3, 32.5 µM (inactive); in the experiment with NCI-H522 it was 17 µM (inactive); in the experiment with OVCAR-5, 28.8 µM (inactive). Besides, the GI50 in the experiment with 786-0 is 17.9 µM (inactive); with NCI-H226, 17.7 µM (inactive); in the experiment with IGROV-1 it was 27.5 µM (inactive); in the experiment with SF-539 it was 21.1 µM (inactive).

As for `S=P(c1ccccc1)(c1ccccc1)C1(C2(P(=S)(c3ccccc3)c3ccccc3)CC2)CC1`, the GI50 in the experiment with HOP-62, in the experiment with DLD-1, in the experiment with EKVX, in the experiment with KM12, in the experiment on SNB-19 and in the experiment with OVCAR-4 was > 100 µM (inactive) in each case. Moreover, the GI50 in the experiment with COLO 205, with NCI-H522, in the experiment on OVCAR-5, with 786-0, with NCI-H226 and in the experiment on IGROV-1 was > 100 µM (inactive) each time. In addition, the GI50 in the experiment with SF-539 is > 100 µM (inactive).

For the molecule `CC(C)(C)C1CCC2c3c([nH]c4ccccc34)C3C(=O)N(c4ccc(Br)cc4)C(=O)C3C2C1` (stereo not drawn), the GI50 was 21.6 µM (inactive) in the experiment on HOP-62; 24.3 µM (inactive) in the experiment with HOP-92; 41.4 µM (inactive) in the experiment on DLD-1; 22 µM (inactive) with EKVX; 22.3 µM (inactive) in the experiment on KM12; 16.9 µM (inactive) with SNB-19. For the same molecule, the GI50 was 33.9 µM (inactive) in the experiment on Malme-3M; 16.9 µM (inactive) in the experiment with OVCAR-4; 17.1 µM (inactive) in the experiment with RPMI-8226; 11.1 µM (inactive) in the experiment on COLO 205; 23.6 µM (inactive) in the experiment on OVCAR-5; 21.6 µM (inactive) with 786-0. In addition, the GI50 in the experiment with NCI-H226 was 18.7 µM (inactive); in the experiment on IGROV-1, 21.1 µM (inactive); with SF-539, 21.1 µM (inactive).

Take `Sc1nnc(/C=C/c2ccc(Cl)c(Cl)c2)[nH]1`: the GI50 with HOP-62 was 41.4 µM (inactive); with DLD-1, > 100 µM (inactive); in the experiment on EKVX it was > 100 µM (inactive); in the experiment on KM12 it was > 100 µM (inactive); in the experiment on SNB-19 it was > 100 µM (inactive); with Malme-3M, > 100 µM (inactive). The GI50 in the experiment with COLO 205 was 0.0202 µM (active); with SK-OV-3, 0.0173 µM (active); in the experiment on NCI-H522 it was 94 µM (inactive); in the experiment on OVCAR-5, > 100 µM (inactive); with 786-0, > 100 µM (inactive); in the experiment on NCI-H226, > 100 µM (inactive). Besides, the GI50 in the experiment with IGROV-1 and with SF-539 was > 100 µM (inactive) throughout.

For `CC1OC(n2cc(Cl)c(=O)[nH]c2=O)C=C(OC(=O)c2ccccc2)C1=O` (stereo not drawn), the GI50 in the experiment with HOP-62, in the experiment with HOP-92, in the experiment with DLD-1, with EKVX, with SNB-19 and in the experiment with Malme-3M was > 100 µM (inactive) throughout. Also, the GI50 in the experiment with OVCAR-4, in the experiment with RPMI-8226, in the experiment with COLO 205, in the experiment with SK-OV-3, in the experiment with 786-0 and in the experiment with IGROV-1 was > 100 µM (inactive) each time. Further, in the experiment with SF-539, the GI50 was > 100 µM (inactive).

Turning to `Cc1noc2cccc(O)c12`, the GI50 with HOP-62, in the experiment on HOP-92, with DLD-1, with EKVX, in the experiment with KM12 and in the experiment on SNB-19 was > 100 µM (inactive) each time. Moreover, the GI50 in the experiment with Malme-3M, in the experiment on OVCAR-4, in the experiment on COLO 205, in the experiment with SK-OV-3, with NCI-H522 and in the experiment on OVCAR-5 was > 100 µM (inactive) each time. In addition, the GI50 in the experiment on 786-0, in the experiment with NCI-H226, in the experiment on IGROV-1 and in the experiment with SF-539 was > 100 µM (inactive) in each case.

Turning to `NS(=O)(=O)c1cc2c(cc1Cl)NC(/C(=N/NC(=O)c1ccncc1)C1C(=O)NC(=O)NC1=O)=NS2(=O)=O`, the GI50 was > 100 µM (inactive) with HOP-62; > 100 µM (inactive) in the experiment with HOP-92; > 100 µM (inactive) with DLD-1; > 100 µM (inactive) with EKVX; > 100 µM (inactive) in the experiment with KM12; 83.6 µM (inactive) with SNB-19. Also, the GI50 in the experiment with Malme-3M, in the experiment with OVCAR-4, with RPMI-8226, in the experiment on COLO 205, with SK-OV-3 and in the experiment with OVCAR-5 was > 100 µM (inactive) in each case. In addition, the GI50 with 786-0, in the experiment on IGROV-1 and in the experiment on SF-539 was > 100 µM (inactive) each time.
